Measurements: patent publication US12162890B2 (Novartis AG, priority 2015, dated 2024)

Each compound was assayed against HEK293 cells with stable expression of the GRIN1 gene and tetracycline-inducible expression of the GRIN2B gene (NMDA receptor, NR2B) (Homo sapiens, UniProt Q13224) (assay: Fluo-8 Ca2+ flux assay: reversal of Ro 25-6981-mediated suppression of the Ca2+ response to co-agonist (glutamate/glycine)). Settings: reversal of the Ro 25-6981 suppression of the Ca2+ response to co-agonist (glutamate/glycine).
Assay type: cell-based
Further: test concentration or dose not given here.

Chain of HEK293 cells with stable expression of the GRIN1 gene and tetracycline-inducible expression of the GRIN2B gene (NMDA receptor, NR2B) (Q13224 27-1484, other chains not shown): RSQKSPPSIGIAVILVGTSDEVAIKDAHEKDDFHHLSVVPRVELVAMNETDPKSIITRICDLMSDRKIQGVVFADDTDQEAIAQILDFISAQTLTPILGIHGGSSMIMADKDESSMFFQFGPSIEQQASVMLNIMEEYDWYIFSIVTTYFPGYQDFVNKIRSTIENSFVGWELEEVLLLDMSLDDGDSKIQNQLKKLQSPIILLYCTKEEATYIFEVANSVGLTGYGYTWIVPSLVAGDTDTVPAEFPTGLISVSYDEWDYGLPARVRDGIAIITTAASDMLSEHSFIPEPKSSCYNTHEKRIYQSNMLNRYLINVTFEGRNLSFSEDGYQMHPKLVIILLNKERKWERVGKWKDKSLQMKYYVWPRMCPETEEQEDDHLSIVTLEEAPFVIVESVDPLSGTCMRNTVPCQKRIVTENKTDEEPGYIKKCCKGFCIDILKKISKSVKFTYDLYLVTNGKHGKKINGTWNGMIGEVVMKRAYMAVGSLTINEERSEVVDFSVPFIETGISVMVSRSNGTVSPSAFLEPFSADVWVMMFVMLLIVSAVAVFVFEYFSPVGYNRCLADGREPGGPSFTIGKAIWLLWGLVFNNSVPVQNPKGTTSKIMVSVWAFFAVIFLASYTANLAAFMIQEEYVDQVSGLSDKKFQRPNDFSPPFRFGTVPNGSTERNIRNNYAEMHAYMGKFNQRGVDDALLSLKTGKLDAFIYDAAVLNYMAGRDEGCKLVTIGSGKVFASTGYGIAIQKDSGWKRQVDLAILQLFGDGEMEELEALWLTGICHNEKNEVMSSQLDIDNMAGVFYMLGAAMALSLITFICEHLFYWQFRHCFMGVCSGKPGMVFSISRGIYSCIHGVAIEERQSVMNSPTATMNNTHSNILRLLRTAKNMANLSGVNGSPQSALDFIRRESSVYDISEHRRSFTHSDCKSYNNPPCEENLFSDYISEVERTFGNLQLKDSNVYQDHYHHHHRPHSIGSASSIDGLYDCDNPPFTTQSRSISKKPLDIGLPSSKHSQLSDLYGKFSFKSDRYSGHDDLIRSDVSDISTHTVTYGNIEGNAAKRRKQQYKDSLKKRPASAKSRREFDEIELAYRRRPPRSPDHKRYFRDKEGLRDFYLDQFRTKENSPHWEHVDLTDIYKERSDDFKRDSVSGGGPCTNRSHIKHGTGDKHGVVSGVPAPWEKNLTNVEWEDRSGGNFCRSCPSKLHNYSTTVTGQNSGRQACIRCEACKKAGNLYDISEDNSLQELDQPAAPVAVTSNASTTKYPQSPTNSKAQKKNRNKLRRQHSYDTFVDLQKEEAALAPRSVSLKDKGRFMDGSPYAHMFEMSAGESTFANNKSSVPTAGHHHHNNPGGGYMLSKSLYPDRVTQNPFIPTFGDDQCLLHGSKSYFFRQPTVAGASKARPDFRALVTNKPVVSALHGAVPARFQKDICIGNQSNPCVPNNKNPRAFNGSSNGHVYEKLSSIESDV

Structure (SMILES)	Response Recovered (%)
O=C(Cn1ccc2scc(-c3ccc(Cl)c(C(F)(F)F)c3)c2c1=O)N1C[C@@H](F)[C@@H](F)C1 [Example 14, 3-(4-chloro-3-(trifluoromethyl)phenyl)-5-(2-((3S,4R)-3,4-difluoropyrrolidin-1-yl)-2-oxoethyl)thieno[3,2-c]pyridin-4(5H)-one]	99%
O=C(Cn1ccc2scc(-c3ccc(Cl)c(C(F)(F)F)c3)c2c1=O)N1CC[C@H](F)C1 [Example 15, (S)-3-(4-chloro-3-(trifluoromethyl)phenyl)-5-(2-(3-fluoropyrrolidin-1-yl)-2-oxoethyl)thieno[3,2-c]pyridin-4(5H)-one]	95%
O=C(Cn1ccc2scc(-c3ccc(Cl)c(Cl)c3)c2c1=O)N1C[C@@H](F)[C@@H](F)C1 [Example 16, 3-(3,4-dichlorophenyl)-5-(2-((3S,4R)-3,4-difluoropyrrolidin-1-yl)-2-oxoethyl)thieno[3,2-c]pyridin-4(5H)-one]	107%
O=C(Cn1ccc2scc(-c3ccc(Cl)c(C(F)(F)F)c3)c2c1=O)N1CC[C@@H](F)C1 [Example 17, (R)-3-(4-chloro-3-(trifluoromethyl)phenyl)-5-(2-(3-fluoropyrrolidin-1-yl)-2-oxoethyl)thieno[3,2-c]pyridin-4(5H)-one]	99%
CC1(F)CN(C(=O)Cn2ccc3scc(-c4ccc(Cl)c(F)c4)c3c2=O)C1 [Example 18, 3-(4-chloro-3-fluorophenyl)-5-(2-(3-fluoro-3-methylazetidin-1-yl)-2-oxoethyl)thieno[3,2-c]pyridin-4(5H)-one]	120%
CC1(F)CN(C(=O)Cn2ccc3scc(-c4cnc(F)c(Cl)c4)c3c2=O)C1 [Example 19, 3-(5-chloro-6-fluoropyridin-3-yl)-5-(2-(3-fluoro-3-methylazetidin-1-yl)-2-oxoethyl)thieno[3,2-c]pyridin-4(5H)-one]	35%
CC1(F)CN(C(=O)Cn2ccc3scc(-c4ccc(F)c(F)c4)c3c2=O)C1 [Example 20, 3-(3,4-difluorophenyl)-5-(2-(3-fluoro-3-methylazetidin-1-yl)-2-oxoethyl)thieno[3,2-c]pyridin-4(5H)-one]	41%
CC1(F)CN(C(=O)Cn2ccc3scc(-c4ccc(Cl)c(C(F)(F)F)c4)c3c2=O)C1 [Example 21, 3-(4-chloro-3-(trifluoromethyl)phenyl)-5-(2-(3-fluoro-3-methylazetidin-1-yl)-2-oxoethyl)thieno[3,2-c]pyridin-4(5H)-one]	120%
Cc1cc(-c2csc3ccn(CC(=O)N4CC(C)(F)C4)c(=O)c23)ccc1Cl [Example 22, 3-(4-chloro-3-methylphenyl)-5-(2-(3-fluoro-3-mehtylazetidin-1-yl)-2-oxoethyl)thieno[3,2-c]pyridin-4(5H)-one]	130%
Cc1cc(-c2csc3ccn(CC(=O)N4CC(C)(F)C4)c(=O)c23)ccc1F [Example 23, 5-(2-(3-fluoro-3-methylazetidin-1-yl)-2-oxoethyl)-3-(4-fluoro-3-methylphenyl)thieno[3,2-c]pyridin-4(5H)-one]	100%
O=C(CCn1ccc2scc(-c3ccc(Cl)c(C(F)(F)F)c3)c2c1=O)N1CCC(F)C1 (stereo not shown) [Example 24, 3-(4-chloro-3-(trifluoromethyl)phenyl)-5-(3-(3-fluoropyrrolidin-1-yl)-3-oxopropyl)thieno[3,2-c]pyridin-4(5H)-one]	3%
O=C(Cn1ccc2scc(-c3cnc(Cl)c(C(F)(F)F)c3)c2c1=O)N1CCC(F)C1 (stereo not shown) [Example 25, 3-(6-chloro-5-(trifluoromethyl)pyri-din-3-yl)-5-(2-(3-fluoropyrrolidin-1-yl)-2-oxoethyl)thieno[3,2-c]pyridin-4(5H)-one]	28%
O=C(Cn1ccc2scc(-c3ccc(F)c(C(F)(F)F)c3)c2c1=O)N1CC[C@H](F)C1 [Example 26, (S)-3-(4-fluoro-3-(trifluoromethyl)phen-yl)-5-(2-(3-fluoropyrrolidin-1-yl)-2-oxoethyl)thieno[3,2-c]pyridin-4(5H)-one]	103%
O=C(Cn1ccc2scc(-c3ccc(F)c(C(F)(F)F)c3)c2c1=O)N1CC[C@@H](F)C1 [Example 27, (R)-3-(4-fluoro-3-(trifluoromethyl)phen-yl)-5-(2-(3-fluoropyrrolidin-1-yl)-2-oxoethyl)thieno[3,2-c]pyridin-4(5H)-one]	81%
O=C(Cn1ccc2scc(-c3ccc(F)c(C(F)(F)F)c3)c2c1=O)N1C[C@@H](F)[C@@H](F)C1 [Example 28, 5-(2-((3S,4R)-3,4-difluoropyrrolidin-1-yl)-2-oxoethyl)-3-(4-fluoro-3-(trifluoromethyl)phen-nyl)thieno[3,2-c]pyridin-4(5H)-one]	94%
O=C(Cn1ccc2scc(-c3ccc(Cl)c(Cl)c3)c2c1=O)N1CC[C@@H](F)C1 [Example 29, (R)-3-(3,4-dichlorophenyl)-5-(2-(3-fluoropyrrolidin-1-yl)-2-oxoethyl)thieno[3,2-c]pyridin-4(5H)-one]	104%

Structure (SMILES)	Response Recovered (%)
O=C(Cn1ccc2scc(-c3ccc(Cl)c(Cl)c3)c2c1=O)N1CC[C@H](F)C1 [Example 30, (S)-3-(3,4-dichlorophenyl)-5-(2-(3-fluoropyrrolidin-1-yl)-2-oxoethyl)thieno[3,2-c]pyridin-4(5H)-one]	96%
O=C(Cn1ccc2scc(-c3ccc(Cl)s3)c2c1=O)N1CCC(F)C1 (stereo not shown) [Example 31, 3-(5-chlorothiophen-2-yl)-5-(2-(3-fluoropyrrolidin-1-yl)-2-oxoethyl)thieno[3,2-c]pyridin-4(5H)-one]	34%
O=C(Cn1ccc2scc(-c3ccc(F)c(C(F)(F)F)c3)c2c1=O)N1CC(F)C1 [Example 32, 3-(4-fluoro-3-(trifluoromethyl)phen-yl)-5-(2-(3-fluoroazetidin-1-yl)-2-oxoethyl)thieno[3,2-c]pyridin-4(5H)-one]	60%
O=C(Cn1ccc2scc(-c3ccc(Cl)c(Cl)c3)c2c1=O)N1CC(F)C1 [Example 33, 3-(3,4-dichlorophenyl)-5-(2-(3-fluoroazetidin-1-yl)-2-oxoethyl)thieno[3,2-c]pyridin-4(5H)-one]	54%
O=C(Cn1ccc2scc(-c3ccc(Cl)c(C(F)(F)F)c3)c2c1=O)N1CC(F)C1 [Example 34, 3-(4-chloro-3-(trifluoromethyl)phen-yl)-5-(2-(3-fluoroazetidin-1-yl)-2-oxoethyl)thieno[3,2-c]pyridin-4(5H)-one]	79%
O=C(Cn1ccc2scc(-c3cnc(Cl)c(Cl)c3)c2c1=O)N1CC(F)C(F)C1 (stereo not shown) [Example 35, 3-(5,6-dichloropyridin-3-yl)-5-(2-(3,4-difluoropyrrolidin-1-yl)-2-oxoethyl)thieno[3,2-c]pyridin-4(5H)-one]	28%
O=C(Cn1ccc2scc(-c3cnc(Cl)c(C(F)(F)F)c3)c2c1=O)N1CC(F)C(F)C1 (stereo not shown) [Example 36, 3-(6-chloro-5-(trifluoromethyl)pyri-din-3-yl)-5-(2-(3,4-difluoropyrrolidin-1-yl)-2-oxoethyl)thieno[3,2-c]pyridin-4(5H)-one]	54%
O=C(Cn1ccc2scc(-c3cnc(F)c(Cl)c3)c2c1=O)N1CCC(F)C1 (stereo not shown) [Example 37, 3-(5-chloro-6-fluoropyridin-3-yl)-5-(2-(3-fluoropyrrolidin-1-yl)-2-oxoethyl)thieno[3,2-c]pyridin-4(5H)-one]	22%
O=C(Cn1ccc2scc(-c3cnc(F)c(Cl)c3)c2c1=O)N1CC(F)C(F)C1 (stereo not shown) [Example 38, 3-(5-chloro-6-fluoropyrridin-3-yl)-5-(2-(3,4-difluoropyrrolidin-1-yl)-2-oxoethyl)thieno[3,2-c]pyridin-4(5H)-one]	18%
CC1(F)CN(C(=O)Cn2ccc3scc(-c4ccc(F)c(Cl)c4)c3c2=O)C1 [Example 39, 3-(3-chloro-4-fluorophenyl)-5-(2-(3-fluoro-3-methylazetidin-1-yl)-2-oxoethyl)thieno[3,2-c]pyridin-4(5H)-one]	140%
O=C(Cn1ccc2scc(-c3ccc(F)c(Cl)c3)c2c1=O)N1CC[C@H](F)C1 [Example 40, (S)-3-(3-chloro-4-fluorophenyl)-5-(2-(3-fluoropyrrolidin-1-yl)-2-oxoethyl)thieno[3,2-c]pyridin-4(5H)-one]	46%
O=C(Cn1ccc2scc(-c3ccc(F)c(Cl)c3)c2c1=O)N1CC[C@@H](F)C1 [Example 41, (R)-3-(3-chloro-4-fluorophenyl)-5-(2-(3-fluoropyrrolidin-1-yl)-2-oxoethyl)thieno[3,2-c]pyridin-4(5H)-one]	77%
CC1(F)CN(C(=O)Cn2ccc3scc(-c4ccc(Cl)c(Cl)c4)c3c2=O)C1 [Example 42, 3-(3,4-dichlorophenyl)-5-(2-(3-fluoro-3-methylazetidin-1-yl)-2-oxoethyl)thieno[3,2-c]pyridin-4(5H)-one]	150%
CC1(F)CN(C(=O)Cn2ccc3scc(-c4ccc(F)c(C(F)(F)F)c4)c3c2=O)C1 [Example 43, 3-(4-fluoro-3-(trifluoromethyl)phen-yl)-5-(2-(3-fluoro-3-methylazetidin-1-yl)-2-oxoethyl)thieno[3,2-c]pyridin-4(5H)-one]	160%
O=C(Cn1ccc2scc(-c3ccc(F)c(Cl)c3)c2c1=O)N1CC(F)(C2CC2)C1 [Example 44, 3-(3-chloro-4-fluorophenyl)-5-(2-(3-cyclopropyl-3-fluoroazetidin-1-yl)-2-oxoethyl)thieno[3,2-c]pyridin-4(5H)-one]	63%
